Results as given in ChEMBL document CHEMBL5506003, “Design and biological evaluation of dual tubulin/HDAC inhibitors based on millepachine for treatment of prostate cancer” (Eur J Med Chem, 2024).
The source made the active and inactive calls. The calls are words filed in the database; no cut-off is given here.

Experiments:
[1] = tested on: PC-3; experiment: Induction of cell cycle arrest in human PC-3 cells assessed as S phase cells at 0.08 uM incubated for 24 hrs by PI staining based flow cytometry analysis (reference value: 31.7%); format: functional
[2] = tested on: PC-3; experiment: Induction of mitochondrial membrane potential loss in human PC-3 cells assessed as decrease in JC-1 aggregate level by measuring red fluorescence intensity at 0.16 uM incubated for 24 hrs by JC-1 staining based flow cytometry analysis (reference value: 93.5%); format: functional; parameters: scale not given: the % may be the effect or the level left
[3] = tested on: HUVEC; experiment: Anti-angiogenesis activity against HUVECs assessed as reduction in capillary like tubules at 0.1 to 1.6 uM incubated for 6 hrs by matrigel based microscopic analysis; format: functional, cell-based; conditions: Homo sapiens, dose 0.1-1.6 µM
[4] = tested on: PC-3; experiment: Induction of cell cycle arrest in human PC-3 cells assessed as S phase cells at 0.16 uM incubated for 24 hrs by PI staining based flow cytometry analysis (reference value: 31.7%); format: functional
[5] = tested on: PC-3; experiment: Cytotoxicity against human PC-3 cells incubated for 72 hrs by MTT assay; conditions: PC-3, 72 h
[6] = biological target: Histone deacetylase 1 (Homo sapiens, UniProt Q13547); experiment: Inhibition of HDAC1 in human PC-3 cells assessed as increase in acetylated Histone-H3 level incubated for 24 hrs by Western blotting assay; format: cell-based; conditions: dose 0.08-0.32 µM
[7] = tested on: MDA-MB-231; experiment: Cytotoxicity against human MDA-MB-231 cells incubated for 72 hrs by MTT assay; format: functional, cell-based; conditions: MDA-MB-231, 72 h
[8] = tested on: A549; experiment: Inhibition of cell migration in human A549 cells incubated for 24 hrs by scratch wound healing method; format: functional, cell-based; conditions: dose 0.4-1.6 µM
[9] = tested on: PC-3; experiment: Induction of apoptosis in human PC-3 cells assessed as early apoptotic cells at 0.32 uM incubated for 24 hrs by Annexin V-FITC and PI staining based flow cytometry (reference value: 1.32%); format: functional
[10] = Toxicity in BALB/c nude mouse xenografted with human PC-3 cells assessed as liver damage at 10 to 20 mg/kg, iv administered every 2 days and measured after 3 weeks; format: organism-based; conditions: in vivo, 504 h, dose 10-20 mg/kg
[11] = tested on: PC-3; experiment: Induction of cell cycle arrest in human PC-3 cells assessed as G2/M phase cells at 0.16 uM incubated for 24 hrs by PI staining based flow cytometry analysis (reference value: 12.83%); format: functional
[12] = biological target: T1, Histone deacetylase 2 (Homo sapiens, UniProt Q92769); experiment: Inhibition of HDAC2 in human HeLa nuclear extracts incubated for 30 mins by fluorescence based assay; format: cell-based
[13] = tested on: PC-3; experiment: Induction of cell cycle arrest in human PC-3 cells assessed as G1 phase cells at 0.16 uM incubated for 24 hrs by PI staining based flow cytometry analysis (reference value: 56.17%); format: functional
[14] = tested on: PC-3; experiment: Induction of cell cycle arrest in human PC-3 cells assessed as increase in cyclin B1 level at 0.08 to 0.32 uM by Western blotting analysis; format: functional, cell-based; conditions: dose 0.08-0.32 µM
[15] = tested on: PC-3; experiment: Induction of cell cycle arrest in human PC-3 cells assessed as G1 phase cells at 0.08 uM incubated for 24 hrs by PI staining based flow cytometry analysis (reference value: 56.17%); format: functional
[16] = tested on: PC-3; experiment: Induction of apoptosis in human PC-3 cells assessed as late apoptotic cells at 0.16 uM incubated for 24 hrs by Annexin V-FITC and PI staining based flow cytometry (reference value: 1.02%); format: functional
[17] = tested on: PC-3; experiment: Induction of cell cycle arrest in human PC-3 cells assessed as S phase cells at 0.32 uM incubated for 24 hrs by PI staining based flow cytometry analysis (reference value: 31.7%); format: functional
[18] = Volume of distribution at steady state in Sprague-Dawley rat at 2 mg/kg, iv measured upto 24 hrs by HPLC-MS analysis; format: ADME, organism-based; conditions: in vivo, read-out: Vdss
[19] = biological target: T1, Histone deacetylase 2; experiment: Inhibition of HDAC2 in human PC-3 cells assessed as increase in acetylated Histone-H3 level incubated for 24 hrs by Western blotting assay; format: cell-based; conditions: dose 0.08-0.32 µM
[20] = tested on: PC-3; experiment: Induction of apoptosis in human PC-3 cells assessed as viable cells at 0.32 uM incubated for 24 hrs by Annexin V-FITC and PI staining based flow cytometry (reference value: 97.5%); format: functional; conditions: read-out: Activity
[21] = biological target: T2, Protein deacetylase HDAC6 (Homo sapiens) (UniProt Q9UBN7); experiment: Inhibition of HDAC6 in human PC-3 cells assessed as increase in acetylated alpha-tubulin level incubated for 24 hrs by Western blotting assay; format: cell-based; conditions: dose 0.08-0.32 µM
T2 sequence (whole entry): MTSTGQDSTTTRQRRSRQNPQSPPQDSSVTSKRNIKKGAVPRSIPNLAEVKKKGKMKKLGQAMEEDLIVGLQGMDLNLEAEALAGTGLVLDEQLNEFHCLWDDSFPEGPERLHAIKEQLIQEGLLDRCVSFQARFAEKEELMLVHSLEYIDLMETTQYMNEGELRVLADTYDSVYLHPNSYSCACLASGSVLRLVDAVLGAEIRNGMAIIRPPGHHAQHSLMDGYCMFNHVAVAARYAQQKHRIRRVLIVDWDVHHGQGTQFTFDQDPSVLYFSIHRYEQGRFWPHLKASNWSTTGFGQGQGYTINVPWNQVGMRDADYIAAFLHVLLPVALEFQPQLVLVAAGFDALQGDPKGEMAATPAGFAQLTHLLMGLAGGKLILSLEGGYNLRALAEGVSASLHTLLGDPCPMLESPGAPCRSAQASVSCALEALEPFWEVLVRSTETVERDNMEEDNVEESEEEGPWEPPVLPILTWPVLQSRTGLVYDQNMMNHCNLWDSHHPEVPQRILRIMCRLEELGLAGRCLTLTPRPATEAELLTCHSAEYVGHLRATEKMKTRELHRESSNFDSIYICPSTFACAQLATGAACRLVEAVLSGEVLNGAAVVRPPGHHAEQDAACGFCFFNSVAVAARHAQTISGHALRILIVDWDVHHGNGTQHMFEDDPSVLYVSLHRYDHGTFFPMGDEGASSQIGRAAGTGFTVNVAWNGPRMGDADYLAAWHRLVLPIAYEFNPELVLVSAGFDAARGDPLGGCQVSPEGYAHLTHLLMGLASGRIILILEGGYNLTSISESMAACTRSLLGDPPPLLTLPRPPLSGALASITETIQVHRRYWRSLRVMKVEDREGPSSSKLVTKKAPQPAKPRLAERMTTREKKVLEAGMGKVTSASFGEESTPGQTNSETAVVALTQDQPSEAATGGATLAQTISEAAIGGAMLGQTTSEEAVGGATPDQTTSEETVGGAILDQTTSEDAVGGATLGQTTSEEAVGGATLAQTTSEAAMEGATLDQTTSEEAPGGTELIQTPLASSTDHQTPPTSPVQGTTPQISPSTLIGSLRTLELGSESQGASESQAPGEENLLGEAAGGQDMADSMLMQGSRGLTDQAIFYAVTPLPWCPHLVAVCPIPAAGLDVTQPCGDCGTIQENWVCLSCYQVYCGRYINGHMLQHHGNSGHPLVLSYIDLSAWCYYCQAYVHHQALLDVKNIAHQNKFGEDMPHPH

[22] = tested on: A549; experiment: Inhibition of cell migration in human A549 cells at 0.4 to 1.6 uM incubated for 24 hrs by crystal violet staining based transwell method; format: functional; conditions: dose 0.4-1.6 µM

T1 sequence (Q92769 whole entry): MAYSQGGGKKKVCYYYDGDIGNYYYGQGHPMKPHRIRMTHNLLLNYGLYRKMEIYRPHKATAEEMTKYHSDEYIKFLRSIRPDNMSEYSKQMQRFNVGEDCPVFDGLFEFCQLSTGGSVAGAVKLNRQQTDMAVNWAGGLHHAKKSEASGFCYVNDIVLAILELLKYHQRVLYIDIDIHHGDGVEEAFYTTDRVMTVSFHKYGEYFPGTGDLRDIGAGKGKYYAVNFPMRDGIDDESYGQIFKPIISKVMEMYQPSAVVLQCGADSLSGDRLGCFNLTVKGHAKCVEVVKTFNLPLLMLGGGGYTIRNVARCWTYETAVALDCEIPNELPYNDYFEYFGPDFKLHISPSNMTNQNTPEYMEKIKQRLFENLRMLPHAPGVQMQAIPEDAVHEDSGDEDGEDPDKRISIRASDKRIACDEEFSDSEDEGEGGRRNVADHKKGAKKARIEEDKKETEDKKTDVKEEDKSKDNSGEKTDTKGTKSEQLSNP
Histone deacetylase 1, sequence (Q13547 whole entry): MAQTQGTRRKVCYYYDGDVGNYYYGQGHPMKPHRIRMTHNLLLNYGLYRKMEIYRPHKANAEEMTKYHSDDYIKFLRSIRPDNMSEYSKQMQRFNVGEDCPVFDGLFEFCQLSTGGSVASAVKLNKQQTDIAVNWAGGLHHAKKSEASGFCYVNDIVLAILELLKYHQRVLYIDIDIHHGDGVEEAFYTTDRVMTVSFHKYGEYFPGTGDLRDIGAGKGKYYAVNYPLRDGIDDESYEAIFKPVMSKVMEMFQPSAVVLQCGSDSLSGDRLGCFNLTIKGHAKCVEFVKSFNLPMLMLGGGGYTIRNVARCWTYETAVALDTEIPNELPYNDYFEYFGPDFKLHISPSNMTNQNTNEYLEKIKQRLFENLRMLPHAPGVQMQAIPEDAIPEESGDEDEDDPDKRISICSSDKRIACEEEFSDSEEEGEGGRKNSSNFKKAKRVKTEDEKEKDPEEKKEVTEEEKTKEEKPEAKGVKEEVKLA

What does the source list for COc1ccc(/C=C/C(=O)c2ccc(OC)c3c2OC(C)(C)C=C3)cc1NCC(=O)NO?
Activity [1]: 39.9%; Activity [2]: 77.9%; Activity [3]: Active; Activity [4]: 28.7%; IC50 [5]: 0.016 µM; inhibition [6]: Dose-Dependent Effect; IC50 [7]: 0.34 µM; inhibition [8]: Dose-Dependent Effect; Activity [9]: 63.8%; Activity [10]: Non-Toxic; Activity [11]: 50.56%; IC50 [12]: 0.43 µM; Activity [13]: 18.7%; Activity [14]: Active; Activity [15]: 34.64%; Activity [16]: 5.28%; Activity [17]: 10.6%; Vd [18]: 0.42 L/kg; inhibition [19]: Dose-Dependent Effect; viability at 0.32 µM [20]: 27.6%; inhibition [21]: Dose-Dependent Effect; inhibition [22]: Active
